Experimental data reported in patent publication US10149809B2, “Skin aging inhibitor and concentrate of resveratrol 3-O-α-glucoside” (priority 2014, dated 2018).

Test system: sirtuin 1 gene
Assay: Sirtuin 1 gene expression-promoting effect (1)
Assay type: cell-based
Conditions: normal human epidermal keratinocytes, 0.02 wt %, 72 hours; control = 100%
Description: Normal human epidermal keratinocytes were seeded into 12-well culture plates at 7.5×10^4 cells per well. As the medium, EpiLife KG-2 medium supplemented with insulin, hEGF, hydrocortisone, anti-microbial agents, and BPE was used (basal medium), and the cells were preincubated in 5% CO2 at 37° C. for 72 hours. The medium was removed and then replaced with a sample medium supplemented with resveratrol 3-O-α-glucoside to a concentration of 0.02 wt %, and the cells were cultured in 5% CO2 at 37° C. After 72 hours, total RNA was extracted from the cells, and the level of expression of the sirtuin 1 gene was quantified by real time PCR. As a control group, cells were cultured without resveratrol 3-O-α-glucoside, and total RNA collected from these cells was used.
Taking as 100% the level of expression of the sirtuin 1 gene for the control group, a relative ratio of the expression level of the sirtuin 1 gene for the resveratrol 3-O-α-glucoside-supplemented group (SIRT 1 gene expression ratio, %) was determined. In the measurement of the expression level of the sirtuin 1 gene, PPIA was used for internal standard correction.

## OC[C@H]1O[C@H](Oc2cc(O)cc(C=Cc3ccc(O)cc3)c2)[C@H](O)[C@@H](O)[C@@H]1O [Resveratrol 3-O-α-Glucoside, resveratrol 3-O-α-glucoside]
  SIRT 1 Gene Expression Ratio (%): 171%
